Assay results taken from the supplement of paper PMC10307832.

Key:
Assay in all cases: relative viability (nuclei count vs DMSO), 5 days (fraction); higher = more cells survive
Selumetinib + Navitoclax = compound: Cn1cnc2c(F)c(Nc3ccc(Br)cc3Cl)c(C(=O)NOCCO)cc21 [Selumetinib] + CC1(C)CCC(c2ccc(Cl)cc2)=C(CN2CCN(c3ccc(C(=O)NS(=O)(=O)c4ccc(N[C@H](CCN5CCOCC5)CSc5ccccc5)c(S(=O)(=O)C(F)(F)F)c4)cc3)CC2)C1 [Navitoclax] (partner 0.5 µM)
Outline: (§1)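 The day after seeding in 1536-well plates, lung cancer cell lines were treated by pin tool with a single drug, or with a fixed anchor-drug dose together with five library-drug doses (not always all listed) in √10 steps. After 5 days, a combined fix-and-stain solution (final 0.05% Triton X-100, 1% formaldehyde, 1 ug/ml Hoechst) was added. Nuclei counted on 4× images gave relative viability as treated counts over vehicle counts, reported as the median of duplicate plates.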

Venetoclax + Phenformin = compound: CC1(C)CCC(CN2CCN(c3ccc(C(=O)NS(=O)(=O)c4ccc(NCC5CCOCC5)c([N+](=O)[O-])c4)c(Oc4cnc5[nH]ccc5c4)c3)CC2)=C(c2ccc(Cl)cc2)C1 [Venetoclax] + N=C(N)NC(=N)NCCc1ccccc1 [Phenformin] (partner 250 µM)
Outline: as §1

Venetoclax + Trametinib = compound: CC1(C)CCC(CN2CCN(c3ccc(C(=O)NS(=O)(=O)c4ccc(NCC5CCOCC5)c([N+](=O)[O-])c4)c(Oc4cnc5[nH]ccc5c4)c3)CC2)=C(c2ccc(Cl)cc2)C1 [Venetoclax] + CC(=O)Nc1cccc(-n2c(=O)n(C3CC3)c(=O)c3c(Nc4ccc(I)cc4F)n(C)c(=O)c(C)c32)c1 [Trametinib] (partner 0.02 µM)
Outline: as §1

Venetoclax + Decitabine = compound: CC1(C)CCC(CN2CCN(c3ccc(C(=O)NS(=O)(=O)c4ccc(NCC5CCOCC5)c([N+](=O)[O-])c4)c(Oc4cnc5[nH]ccc5c4)c3)CC2)=C(c2ccc(Cl)cc2)C1 [Venetoclax] + Nc1ncn([C@H]2C[C@H](O)[C@@H](CO)O2)c(=O)n1 [Decitabine] (partner 2 µM)
Outline: as §1

For EBC-1, the relative viability (Selumetinib + Navitoclax; first compound 0.02 µM) was 0.225, the relative viability (Selumetinib + Navitoclax; first compound 0.06325 µM) was 0.19 and the relative viability (Selumetinib + Navitoclax; first compound 0.2 µM) was 0.193. The relative viability (Selumetinib + Navitoclax; first compound 0.6325 µM) was 0.138.
With NCI-H2228 the relative viability (Venetoclax + Phenformin; first compound 0.01 µM) was 0.366, the relative viability (Venetoclax + Phenformin; first compound 0.03162 µM) was 0.322 and the relative viability (Venetoclax + Phenformin; first compound 0.1 µM) was 0.234. For the same cell line, the relative viability (Venetoclax + Phenformin; first compound 0.3162 µM) was 0.422, the relative viability (Venetoclax + Phenformin; first compound 1 µM) was 0.408 and the relative viability (Venetoclax + Trametinib; first compound 0.01 µM) was 0.715. It also gave a relative viability (Venetoclax + Trametinib; first compound 0.03162 µM) of 0.608, a relative viability (Venetoclax + Trametinib; first compound 0.1 µM) of 0.567 and a relative viability (Venetoclax + Trametinib; first compound 0.3162 µM) of 0.453. For the same cell line, the relative viability (Venetoclax + Trametinib; first compound 1 µM) was 0.464, the relative viability (Selumetinib + Navitoclax; first compound 0.02 µM) was 0.928 and the relative viability (Selumetinib + Navitoclax; first compound 0.06325 µM) was 0.678. For the same cell line, the relative viability (Selumetinib + Navitoclax; first compound 0.2 µM) was 0.789 and the relative viability (Selumetinib + Navitoclax; first compound 0.6325 µM) was 0.729.
NCI-H2342 showed a relative viability (Venetoclax + Decitabine; first compound 0.01 µM) of 0.777, a relative viability (Venetoclax + Decitabine; first compound 0.03162 µM) of 0.735 and a relative viability (Venetoclax + Decitabine; first compound 0.1 µM) of 0.713. It also gave a relative viability (Venetoclax + Decitabine; first compound 0.3162 µM) of 0.764, a relative viability (Venetoclax + Decitabine; first compound 1 µM) of 0.693 and a relative viability (Venetoclax + Phenformin; first compound 0.01 µM) of 0.763. For the same cell line, the relative viability (Venetoclax + Phenformin; first compound 0.03162 µM) was 0.531, the relative viability (Venetoclax + Phenformin; first compound 0.1 µM) was 0.601 and the relative viability (Venetoclax + Phenformin; first compound 0.3162 µM) was 0.568. The relative viability (Venetoclax + Phenformin; first compound 1 µM) was 0.563, the relative viability (Venetoclax + Trametinib; first compound 0.01 µM) was 0.77 and the relative viability (Venetoclax + Trametinib; first compound 0.03162 µM) was 0.762. The relative viability (Venetoclax + Trametinib; first compound 0.1 µM) was 0.979, the relative viability (Venetoclax + Trametinib; first compound 0.3162 µM) was 0.839 and the relative viability (Venetoclax + Trametinib; first compound 1 µM) was 0.819.
Work on NCI-H650 yielded a relative viability (Venetoclax + Decitabine; first compound 0.01 µM) of 0.326, a relative viability (Venetoclax + Decitabine; first compound 0.03162 µM) of 0.311 and a relative viability (Venetoclax + Decitabine; first compound 0.1 µM) of 0.326. For the same cell line, the relative viability (Venetoclax + Decitabine; first compound 0.3162 µM) was 0.31, the relative viability (Venetoclax + Decitabine; first compound 1 µM) was 0.372 and the relative viability (Venetoclax + Phenformin; first compound 0.01 µM) was 0.439. The relative viability (Venetoclax + Phenformin; first compound 0.03162 µM) was 0.487, the relative viability (Venetoclax + Phenformin; first compound 0.1 µM) was 0.438 and the relative viability (Venetoclax + Phenformin; first compound 0.3162 µM) was 0.488. For the same cell line, the relative viability (Venetoclax + Phenformin; first compound 1 µM) was 0.435, the relative viability (Venetoclax + Trametinib; first compound 0.01 µM) was 0.875 and the relative viability (Venetoclax + Trametinib; first compound 0.03162 µM) was 0.995. The relative viability (Venetoclax + Trametinib; first compound 0.1 µM) was 0.892, the relative viability (Venetoclax + Trametinib; first compound 0.3162 µM) was 0.892 and the relative viability (Venetoclax + Trametinib; first compound 1 µM) was 0.963.
For NCI-H661, the relative viability (Venetoclax + Decitabine; first compound 0.01 µM) was 0.561, the relative viability (Venetoclax + Decitabine; first compound 0.03162 µM) was 0.528 and the relative viability (Venetoclax + Decitabine; first compound 0.1 µM) was 0.547. For the same cell line, the relative viability (Venetoclax + Decitabine; first compound 0.3162 µM) was 0.532, the relative viability (Venetoclax + Decitabine; first compound 1 µM) was 0.529 and the relative viability (Venetoclax + Phenformin; first compound 0.01 µM) was 0.298. It also gave a relative viability (Venetoclax + Phenformin; first compound 0.03162 µM) of 0.278, a relative viability (Venetoclax + Phenformin; first compound 0.1 µM) of 0.291 and a relative viability (Venetoclax + Phenformin; first compound 0.3162 µM) of 0.28. The relative viability (Venetoclax + Phenformin; first compound 1 µM) was 0.262, the relative viability (Venetoclax + Trametinib; first compound 0.01 µM) was 0.528 and the relative viability (Venetoclax + Trametinib; first compound 0.03162 µM) was 0.606. For the same cell line, the relative viability (Venetoclax + Trametinib; first compound 0.1 µM) was 0.538, the relative viability (Venetoclax + Trametinib; first compound 0.3162 µM) was 0.525 and the relative viability (Venetoclax + Trametinib; first compound 1 µM) was 0.532.
Cell Line A549 has a relative viability (Venetoclax + Decitabine; first compound 0.01 µM) of 0.22, a relative viability (Venetoclax + Decitabine; first compound 0.03162 µM) of 0.325 and a relative viability (Venetoclax + Decitabine; first compound 0.1 µM) of 0.159. For the same cell line, the relative viability (Venetoclax + Decitabine; first compound 0.3162 µM) was 0.214, the relative viability (Venetoclax + Decitabine; first compound 1 µM) was 0.274 and the relative viability (Venetoclax + Phenformin; first compound 0.01 µM) was 0.141. The relative viability (Venetoclax + Phenformin; first compound 0.03162 µM) was 0.147, the relative viability (Venetoclax + Phenformin; first compound 0.1 µM) was 0.129 and the relative viability (Venetoclax + Phenformin; first compound 0.3162 µM) was 0.164. The relative viability (Venetoclax + Phenformin; first compound 1 µM) was 0.129, the relative viability (Selumetinib + Navitoclax; first compound 0.02 µM) was 0.945 and the relative viability (Selumetinib + Navitoclax; first compound 0.06325 µM) was 0.904. The relative viability (Selumetinib + Navitoclax; first compound 0.2 µM) was 0.734 and the relative viability (Selumetinib + Navitoclax; first compound 0.6325 µM) was 0.596.
For NCI-H358, the relative viability (Venetoclax + Decitabine; first compound 0.01 µM) was 0.18, the relative viability (Venetoclax + Decitabine; first compound 0.03162 µM) was 0.238 and the relative viability (Venetoclax + Decitabine; first compound 0.1 µM) was 0.226. It also gave a relative viability (Venetoclax + Decitabine; first compound 0.3162 µM) of 0.208, a relative viability (Venetoclax + Decitabine; first compound 1 µM) of 0.205 and a relative viability (Venetoclax + Phenformin; first compound 0.01 µM) of 0.369. The relative viability (Venetoclax + Phenformin; first compound 0.03162 µM) was 0.291, the relative viability (Venetoclax + Phenformin; first compound 0.1 µM) was 0.282 and the relative viability (Venetoclax + Phenformin; first compound 0.3162 µM) was 0.406. The relative viability (Venetoclax + Phenformin; first compound 1 µM) was 0.325, the relative viability (Venetoclax + Trametinib; first compound 0.01 µM) was 0.117 and the relative viability (Venetoclax + Trametinib; first compound 0.03162 µM) was 0.14. It also gave a relative viability (Venetoclax + Trametinib; first compound 0.1 µM) of 0.106, a relative viability (Venetoclax + Trametinib; first compound 0.3162 µM) of 0.126 and a relative viability (Venetoclax + Trametinib; first compound 1 µM) of 0.135.
In the case of SW 900, the relative viability (Venetoclax + Decitabine; first compound 0.01 µM) is reported as 0.455, the relative viability (Venetoclax + Decitabine; first compound 0.03162 µM) is reported as 0.444 and the relative viability (Venetoclax + Decitabine; first compound 0.1 µM) is reported as 0.356. The relative viability (Venetoclax + Decitabine; first compound 0.3162 µM) was 0.405, the relative viability (Venetoclax + Decitabine; first compound 1 µM) was 0.39 and the relative viability (Venetoclax + Phenformin; first compound 0.01 µM) was 0.385. It also gave a relative viability (Venetoclax + Phenformin; first compound 0.03162 µM) of 0.702, a relative viability (Venetoclax + Phenformin; first compound 0.1 µM) of 0.528 and a relative viability (Venetoclax + Phenformin; first compound 0.3162 µM) of 0.706. The relative viability (Venetoclax + Phenformin; first compound 1 µM) was 0.623, the relative viability (Venetoclax + Trametinib; first compound 0.01 µM) was 0.853 and the relative viability (Venetoclax + Trametinib; first compound 0.03162 µM) was 0.711. For the same cell line, the relative viability (Venetoclax + Trametinib; first compound 0.1 µM) was 0.824, the relative viability (Venetoclax + Trametinib; first compound 0.3162 µM) was 0.761 and the relative viability (Venetoclax + Trametinib; first compound 1 µM) was 0.657.
In the case of NCI-H1703, the relative viability (Selumetinib + Navitoclax; first compound 0.02 µM) is reported as 1.12, the relative viability (Selumetinib + Navitoclax; first compound 0.06325 µM) is reported as 0.875 and the relative viability (Selumetinib + Navitoclax; first compound 0.2 µM) is reported as 1.29. The relative viability (Selumetinib + Navitoclax; first compound 0.6325 µM) was 1.1.
NCI-H1563 was tested, and the relative viability (Venetoclax + Phenformin; first compound 0.01 µM) was 0.728, the relative viability (Venetoclax + Phenformin; first compound 0.03162 µM) was 0.649 and the relative viability (Venetoclax + Phenformin; first compound 0.1 µM) was 0.662. The relative viability (Venetoclax + Phenformin; first compound 0.3162 µM) was 0.701 and the relative viability (Venetoclax + Phenformin; first compound 1 µM) was 0.659.
With IA-LM the relative viability (Selumetinib + Navitoclax; first compound 0.02 µM) was 0.566, the relative viability (Selumetinib + Navitoclax; first compound 0.06325 µM) was 0.398 and the relative viability (Selumetinib + Navitoclax; first compound 0.2 µM) was 0.284. For the same cell line, the relative viability (Selumetinib + Navitoclax; first compound 0.6325 µM) was 0.315.
With NCI-H1648 the relative viability (Venetoclax + Decitabine; first compound 0.03162 µM) was 0.487, the relative viability (Venetoclax + Decitabine; first compound 0.1 µM) was 0.418 and the relative viability (Venetoclax + Decitabine; first compound 0.3162 µM) was 0.634. The relative viability (Venetoclax + Decitabine; first compound 1 µM) was 0.491, the relative viability (Venetoclax + Trametinib; first compound 0.03162 µM) was 0.628 and the relative viability (Venetoclax + Trametinib; first compound 0.1 µM) was 0.358. It also gave a relative viability (Venetoclax + Trametinib; first compound 0.3162 µM) of 0.427 and a relative viability (Venetoclax + Trametinib; first compound 1 µM) of 0.53.
